Consider 6 compounds from patent US4605642A, “CRF antagonists” (The Salk Institute for Biological Studies, priority 1984, dated 1986).

Square brackets hold non-standard residues; d marks the D form. Peptide text beside a SMILES is read from it. Nle = CCCC[C@H](N)C(=O)O

One experiment concerns β-END-LI secretion. Nature of the experiment: β-END-LI secretion in vivo after intravenous hCRF in rat preparations. As to the method: (§1) Plasma levels of ACTH and β-END-LI are elevated for at least 5-20 minutes following the intraveneous administration of hCRF to nembutal-anesthesized male rats and to quiescent male or female rats with indwelling intravenous cannulae.
A further experiment deals with ACTH secretion. Nature of the experiment: ACTH secretion in vivo after intravenous hCRF in rat preparations. As to the method: as §1
The subject of experiment [1] is secretion of ACTH by cultured rat pituitary cells. Nature of the experiment: Blocking of oCRF-stimulated ACTH secretion by cultured rat pituitary cells. It counts as cell-based. The settings on record: for inhibition of the secretion of ACTH (in words): general procedure set forth in Example III. As to the method:
(§2) The effectiveness of synthetic CRF antagonists to block the secretion of ACTH and β-endorphin by cultured rat pituitary cells is measured using the procedure as generally set forth in Vale et al., Endocrinology, 91, 562 (1972). In vivo testing is carried out using the general procedure set forth in C. Rivier et al., Science, 218, 377 (1982).

The subject of experiment [2] is GnRH-stimulated secretion of LH and FSH. Nature of the experiment: Specificity: GnRH-stimulated secretion of LH and FSH. The settings on record: specificity of inhibition. The format is cell-based.
Experiment [3] deals with TRF-stimulated secretion of TSH and prolactin. Kind of experiment: Specificity: TRF-stimulated secretion of TSH and prolactin. It counts as cell-based. The settings on record: specificity of inhibition.
In experiment [4] the test system is GRF-stimulated secretion of GH. Kind of experiment: Specificity: GRF-stimulated secretion of GH. It counts as cell-based. The settings on record: specificity of inhibition.
The subject of another experiment is spontaneous ACTH release. Nature of the experiment: Spontaneous ACTH release by adrenalectomized rats. The conditions noted are these: iv 3 mg/kg BW (2.7 nmole). It counts as in vivo, rat. As to the method: as §2
The in vivo effect of CRF antagonists is tested on the spontaneous ACTH release by adrenalectomized rats.

Experiment [5] has as its system secretion of β-endorphin by cultured rat pituitary cells. Nature of the experiment: Blocking of β-endorphin (β-END-LI) secretion by cultured rat pituitary cells. The format is cell-based. The settings on record: general procedure set forth in Example III. As to the method: as §2
A short description of experiment [6]: Blood pressure lowering by antagonist. It counts as in vivo. The settings on record: general procedure set forth in Example III.
The mark [7] stands for this setting: intravenous, nembutal-anesthetized male rats and quiescent cannulated male or female rats.

Regarding `CC[C@H](C)[C@H](NC(=O)[C@@H](NC(=O)[C@H](CCC(=O)O)NC(=O)[C@H](CCSC)NC(=O)[C@H](CC(C)C)NC(=O)[C@H](CCCCN)NC(=O)[C@H](CCCNC(=N)N)NC(=O)[C@H](CC(N)=O)NC(=O)[C@H](CO)NC(=O)[C@H](Cc1c[nH]cn1)NC(=O)[C@H](C)NC(=O)[C@H](CCC(N)=O)NC(=O)[C@H](CCC(N)=O)NC(=O)[C@H](C)NC(=O)[C@H](CC(C)C)NC(=O)[C@H](CCC(N)=O)NC(=O)[C@H](CCC(=O)O)NC(=O)[C@H](C)NC(=O)[C@H](CCCNC(=N)N)NC(=O)[C@H](C)NC(=O)[C@H](CCSC)NC(=O)[C@H](CCC(=O)O)NC(=O)[C@H](CC(C)C)NC(=O)[C@@H](NC(=O)[C@H](CCC(=O)O)NC(=O)[C@H](CCCNC(=N)N)NC(=O)[C@H](CC(C)C)NC(=O)[C@H](CC(C)C)NC(=O)[C@H](Cc1c[nH]cn1)NC(=O)[C@H](Cc1ccccc1)NC(=O)[C@@H](NC(=O)[C@H](CC(C)C)NC(=O)[C@H](CC(=O)O)NC(=O)[C@H](CC(C)C)NC(=O)[C@H](CO)NC(=O)[C@@H](NC(=O)[C@@H]1CCCN1C(=O)[C@@H]1CCCN1C(=O)[C@H](CCC(=O)O)NC(=O)[C@H](CCC(=O)O)NC(=O)[C@@H](N)CO)[C@@H](C)CC)[C@@H](C)O)C(C)C)[C@@H](C)CC)C(N)=O` [hCRF], the “time for which plasma levels of β-END-LI are elevated” value with β-END-LI secretion (setting [7]) fell in the range of 5 to 20 min. The “stimulation of β-END-LI secretion in vivo” value in the experiment with β-END-LI secretion (several rat preparations) is listed as “powerful stimulator”. The “time for which plasma levels of ACTH are elevated” value with ACTH secretion (setting [7]) lay in the range of 5 to 20 min. Further, the “stimulation of ACTH secretion in vivo” value in the experiment on ACTH secretion (several rat preparations) was “powerful stimulator”.

As for “H-DLTFHLLREMLEMAKAEQEAEQAALNRLLLEEA-NH2 [AHC (9-41)]”, the IC50 in [1] (cultured rat pituitary cells, 1 nM oCRF, five independent experiments, read-out: concentration that blocks the secretion of ACTH due to 1 nM oCRF by 50%) is 197 ± 72 nM. In addition, the “type of inhibition of oCRF-stimulated ACTH secretion” value in experiment [1] (several concentrations of oCRF and of antagonist, constant oCRF 1 nM) is given as “competitive inhibition”. The “potency as CRF antagonist (in words)” value in experiment [1] (test not stated at the place) is “particularly potent”. Moreover, the “effect on the GnRH-stimulated secretion of LH and FSH” value in experiment [2] is “no effect”. In [3], the “effect on the TRF-stimulated secretion of TSH and prolactin” value is listed as “no effect”. Besides, the “effect on the GRF-stimulated secretion of GH” value in [4] is on record as “no effect”. Moreover, in the experiment on spontaneous ACTH release, the “plasma ACTH levels (spontaneous ACTH release)” value is recorded as “marked decrease”.

Turning to “H-Asp-CML-Thr-Leu-Glu-CML-Leu-Arg-Glu-Met-CML-Glu-Met-Ala-Lys-Ala-Glu-Gln- CML-Ala-Glu-Gln-Ala-Ala-CML-Asn-Arg-Leu-CML-Leu-Glu-Glu-Ala-NH2 [[CML^10,14,19,27,33,38]-AHC(9-41)]”, the “inhibition of the secretion of β-END-LI (in words)” value (shortened to “inhibition … of β-END-LI (in words)”) in experiment [5] was “inhibits the secretion”. Moreover, in experiment [6], the “lowering of blood pressure” value is “very significant lowering of blood pressure”. In addition, the “inhibition of the secretion of ACTH (in words)” value (shortened to “inhibition … of ACTH (in words)”) in experiment [1] is recorded as “inhibits the secretion”.

For `CCCC[C@H](NC(=O)[C@@H](NC(=O)[C@@H](N)CC(C)C)[C@@H](C)O)C(=O)N[C@@H](Cc1c[nH]cn1)C(=O)N[C@@H](CC(C)C)C(=O)N[C@@H](CC(C)C)C(=O)N[C@@H](CCCNC(=N)N)C(=O)N[C@@H](CCC(=O)O)C(=O)N[C@H](C(=O)N[C@@H](CC(C)C)C(=O)N[C@@H](CCC(=O)O)C(=O)N[C@@H](CCSC)C(=O)N[C@@H](C)C(=O)N[C@@H](CCCNC(=N)N)C(=O)N[C@@H](C)C(=O)N[C@@H](CCC(=O)O)C(=O)N[C@@H](CCC(N)=O)C(=O)N[C@@H](CC(C)C)C(=O)N[C@@H](C)C(=O)N[C@@H](CCC(N)=O)C(=O)N[C@@H](CCC(N)=O)C(=O)N[C@@H](C)C(=O)N[C@@H](Cc1c[nH]cn1)C(=O)N[C@@H](CO)C(=O)N[C@@H](CC(N)=O)C(=O)N[C@@H](CCCNC(=N)N)C(=O)N[C@@H](CCCCN)C(=O)N[C@@H](CC(C)C)C(=O)N[C@@H](CCSC)C(=O)N[C@@H](CCC(=O)O)C(=O)N[C@H](C(=O)N[C@H](C(N)=O)[C@@H](C)CC)[C@@H](C)CC)C(C)C` [[Nle^12]-hCRF(10-41)] (H-LT[Nle]HLLREVLEMARAEQLAQQAHSNRKLMEII-NH2), the “inhibition … of β-END-LI (in words)” value in [5] was “inhibits the secretion”. In addition, the “inhibition … of ACTH (in words)” value in experiment [1] is on record as “inhibits the secretion”.

Regarding “Ac-DLTFHLLREVLEMARAEQLAQQAHSNRKLMDII-NH2 [[Acetyl-Asp^9, Asp^39]-hCRF(9-41)]”, the “inhibition … of β-END-LI (in words)” value in experiment [5] was “inhibits the secretion”. Moreover, in [1], the “inhibition … of ACTH (in words)” value was “inhibits the secretion”.

As for `CCCC[C@H](N)C(=O)N[C@@H](CC(=O)O)C(=O)N[C@@H](CC(C)C)C(=O)N[C@@H](CO)C(=O)N[C@@H](Cc1ccccc1)C(=O)N[C@@H](Cc1c[nH]cn1)C(=O)N[C@@H](CC(C)C)C(=O)N[C@@H](CC(C)C)C(=O)N[C@@H](CCCNC(=N)N)C(=O)N[C@@H](CCC(=O)O)C(=O)N[C@H](C(=O)N[C@@H](CC(C)C)C(=O)N[C@@H](CCC(=O)O)C(=O)N[C@@H](CCSC)C(=O)N[C@@H](C)C(=O)N[C@@H](CCCNC(=N)N)C(=O)N[C@@H](C)C(=O)N[C@@H](CCC(=O)O)C(=O)N[C@@H](CCC(N)=O)C(=O)N[C@@H](CC(C)C)C(=O)N[C@@H](C)C(=O)N[C@@H](CCC(N)=O)C(=O)N[C@@H](CCC(N)=O)C(=O)N[C@@H](C)C(=O)N[C@@H](Cc1c[nH]cn1)C(=O)N[C@@H](CC(C)C)C(=O)N[C@@H](CC(N)=O)C(=O)N[C@@H](CCCNC(=N)N)C(=O)N[C@@H](CCCCN)C(=O)N[C@@H](CC(C)C)C(=O)N[C@@H](CCSC)C(=O)N[C@@H](CCC(=O)O)C(=O)N[C@H](C(=O)N[C@H](C(N)=O)[C@@H](C)CC)[C@@H](C)CC)C(C)C` [[Nle^8, Ser^11, Leu^33]-hCRF(8-41)] (H-[Nle]DLSFHLLREVLEMARAEQLAQQAHLNRKLMEII-NH2), the “inhibition … of β-END-LI (in words)” value in experiment [5] was “inhibits the secretion”. Moreover, in [1], the “inhibition … of ACTH (in words)” value was “inhibits the secretion”.
